The values below are quoted from earlier work in patent publication US20190231704A1 (Yale University, priority 2016, published 2019).

The target in this data set is T1, ALK4 (Homo sapiens, UniProt P36896).
T1 sequence (P36896 24-505): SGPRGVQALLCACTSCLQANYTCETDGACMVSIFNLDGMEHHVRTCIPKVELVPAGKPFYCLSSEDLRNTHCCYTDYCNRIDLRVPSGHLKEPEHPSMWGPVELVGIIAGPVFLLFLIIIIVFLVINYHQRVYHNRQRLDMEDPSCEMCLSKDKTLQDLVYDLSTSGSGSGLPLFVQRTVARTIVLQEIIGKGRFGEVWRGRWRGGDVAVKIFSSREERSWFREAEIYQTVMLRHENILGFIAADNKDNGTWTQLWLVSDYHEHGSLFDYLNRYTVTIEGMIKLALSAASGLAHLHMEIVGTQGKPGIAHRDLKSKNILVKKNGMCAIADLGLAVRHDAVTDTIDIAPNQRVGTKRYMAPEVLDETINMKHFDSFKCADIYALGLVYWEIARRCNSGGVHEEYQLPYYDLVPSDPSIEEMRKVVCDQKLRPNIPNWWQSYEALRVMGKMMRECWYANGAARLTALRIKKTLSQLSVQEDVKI

In general, IC50 refers to the midpoint of a concentration-inhibition curve. Turning to `Cc1cccc(-c2[nH]c(C(C)(C)C)nc2-c2ccc3c(c2)OCO3)n1` [SB-505124], the IC50 was 129 nM.
